Assay results published in publication PMC11643962, “Exploring 4,7-Disubstituted Pyrimido[4,5-d]pyrimidines as Antiviral and Anticancer Agents” (Molecules, 2024).

Assays:
[1] = test system: variety of viruses (HSV-1, influenza viruses, yellow fever virus, Zika virus, RSV, HCoV-229E, HCoV-OC43, HCoV-NL63); format: cell-based; settings: CPE reduction assays, virus panel
[2] = test system: influenza A/H1N1 (A/Ned/378/05); assay: Antiviral CPE reduction assay, influenza A/H1N1 in MDCK cells; format: cell-based, influenza A virus; settings: Influenza A virus, H1N1; MDCK cells; CPE reduction, MTS; mean ± SD of two or three independent experiments; read-out: Antiviral Activity (EC50) Influenza H1N1
[3] = test system: HCoV-229E; assay: Antiviral CPE reduction assay, HCoV-229E in HEL299 cells; format: cell-based, human coronavirus 229E; settings: Human coronavirus 229E, HEL 299, MTS, mean ± SD of two or three independent experiments
[4] = test system: HCoV-OC43; assay: Antiviral CPE reduction assay, HCoV-OC43 in HEL299 cells; format: cell-based, human coronavirus OC43; settings: Betacoronavirus 1, OC43, HEL 299, MTS, mean ± SD of two or three independent experiments
[5] = test system: Z-138 (non-Hodgkin lymphoma); assay: MTS proliferation assay, Z-138; settings: Homo sapiens, Z-138, 72 h, read-out: Anti-Proliferative Activity (IC50) Z-138
[6] = in vitro; settings: human
[7] = test system: HCoV-NL63; assay: Antiviral CPE reduction assay, HCoV-NL63 in Hep3B cells; format: cell-based, human coronavirus NL63; settings: Human coronavirus NL63, MTS, mean ± SD of two or three independent experiments
[8] = test system: influenza A/H3N2 (A/HK/7/87); assay: Antiviral CPE reduction assay, influenza A/H3N2 in MDCK cells; format: cell-based, influenza A virus; settings: Influenza A virus, H3N2; MDCK cells; CPE reduction, MTS; mean ± SD of two or three independent experiments; read-out: Antiviral Activity (EC50) Influenza H3N2
[9] = in vitro; settings: human; remark: listed apart in the source
[10] = test system: HL-60 (acute myeloid leukemia); assay: MTS proliferation assay, HL-60; settings: Homo sapiens, HL-60, 72 h, read-out: Anti-Proliferative Activity (IC50) HL-60
[11] = test system: Capan-1 (pancreatic adenocarcinoma); assay: MTS proliferation assay, Capan-1; settings: Homo sapiens, CAPAN-1, 72 h, read-out: Anti-Proliferative Activity (IC50) Capan-1
[12] = in vitro; settings: human; remark: listed apart in the source
[13] = test system: LN-229 (glioblastoma); assay: MTS proliferation assay, LN-229; settings: Homo sapiens, LN-229, 72 h, read-out: Anti-Proliferative Activity (IC50) LN-229
[14] = in vitro; settings: dog
[15] = test system: herpes simplex virus-1 (HSV-1 KOS); assay: Antiviral CPE reduction assay, HSV-1 KOS in HEL299 cells; format: cell-based; settings: Human alphaherpesvirus 1, HEL 299, MTS, mean ± SD, no unit printed on the supplement page (Table 2 of the same screen is in µM)
[16] = test system: NCI-H460 (lung carcinoma); assay: MTS proliferation assay, NCI-H460; settings: Homo sapiens, NCI-H460, 72 h, read-out: Anti-Proliferative Activity (IC50) NCI-H460
[17] = test system: HCT-116 (colorectal carcinoma); assay: MTS proliferation assay, HCT-116; settings: Homo sapiens, HCT-116, 72 h, read-out: Anti-Proliferative Activity (IC50) HCT-116
[18] = test system: Zika virus (ZikV mr766); assay: Antiviral CPE reduction assay, Zika virus mr766 in VeroE6 cells; format: cell-based; settings: Zika virus, Vero C1008, MTS, mean ± SD, no unit printed on the supplement page (Table 2 of the same screen is in µM)
[19] = test system: DND-41 (acute lymphoblastic leukemia); assay: MTS proliferation assay, DND-41; settings: Homo sapiens, DND41, 72 h, read-out: Anti-Proliferative Activity (IC50) DND-41
[20] = test system: K-562 (chronic myeloid leukemia); assay: MTS proliferation assay, K-562; settings: Homo sapiens, K562, 72 h, read-out: Anti-Proliferative Activity (IC50) K-562
[21] = test system: influenza B (B/Ned/537/05); assay: Antiviral CPE reduction assay, influenza B in MDCK cells; format: cell-based, influenza B virus; settings: Influenza B virus, MDCK, read-out: Antiviral Activity (EC50) Influenza B
[22] = test system: respiratory syncytial virus A (RSV A Long); assay: Antiviral CPE reduction assay, RSV A Long in Hep2 cells; format: cell-based; settings: human respiratory syncytial virus, HEp-2; Hep2 cells; CPE reduction, MTS; mean ± SD of two or three independent experiments; read-out: Antiviral Activity (EC50) RSV A Long
[23] = in vitro; settings: African green monkey
[24] = test system: yellow fever virus (YFV 17D); assay: microbe, parasite or virus in culture; format: cell-based; settings: Yellow fever virus, Vero C1008, read-out: Antiviral activity (EC50) YFV 17D

SMILES	EC50 [2]	EC50 [3]	EC50 [4]	IC50 [5]	EC50 [7]	EC50 [8]	IC50 [10]	melting point	IC50 [11]	IC50 [13]	CC50 [14]	EC50 [15]	IC50 [16]	IC50 [17]	EC50 [18]	IC50 [19]	IC50 [20]	EC50 [21]	EC50 [22]	CC50 [23]	also measured
c1cc2c(c(Nc3ncnc4nc(NC5CC5)ncc34)c1)CCCC2 [Compound 7c, N^2-cyclopropyl-N^5-(5,6,7,8-tetrahydronaphthalen-1-yl)pyrimido[4,5-d]pyrimidine-2,5-diamine]	> 50 µM	> 50 µM	> 50 µM	> 100 µM	> 50 µM	> 50 µM	> 100 µM	189 °C	> 100 µM	> 100 µM	> 50 µM	> 50 µM	> 100 µM	> 100 µM	> 50 µM	> 100 µM	> 100 µM	> 50 µM	> 50 µM	> 50 µM	antiviral activity (in words) [1]: inactive; CC50 [6]: > 50 µM; CC50 [9]: > 50 µM; CC50 [12]: > 50 µM; EC50 [24]: > 50 µM
CN1CCN(c2ncc3c(Nc4cccc5c4CCC5)ncnc3n2)CC1 [Compound 7d, N-(2,3-dihydro-1H-inden-4-yl)-7-(4-methylpiperazin-1-yl)pyrimido[4,5-d]pyrimidin-4-amine]	> 50 µM	> 50 µM	> 50 µM	56.5 ± 1.2 µM	> 50 µM	> 50 µM	≥ 71 µM	> 250 °C	> 100 µM	> 100 µM	> 50 µM	> 50 µM	> 100 µM	> 100 µM	> 50 µM	80.6 ± 10.2 µM	61.3 ± 2.4 µM	> 50 µM	> 50 µM	> 50 µM	antiviral activity (in words) [1]: inactive; CC50 [6]: > 50 µM; CC50 [9]: > 50 µM; CC50 [12]: > 50 µM; EC50 [24]: > 50 µM
CCN(CC)CCNc1ncc2c(Nc3cccc4c3CCC4)ncnc2n1 [Compound 7f, N^5-(2,3-dihydro-1H-inden-4-yl)-N^2-[2-(diethylamino)ethyl]pyrimido[4,5-d]pyrimidine-2,5-diamine]	> 50 µM	3.9 ± 2.9 µM	37.3 ± 15.1 µM	> 100 µM	> 50 µM	> 50 µM	> 100 µM	172.9 °C	> 100 µM	> 100 µM	> 50 µM	> 50 µM	> 100 µM	> 100 µM	> 50 µM	> 100 µM	> 100 µM	> 50 µM	> 50 µM	> 50 µM	CC50 [6]: > 50 µM; CC50 [9]: > 50 µM; CC50 [12]: > 50 µM; EC50 [24]: > 50 µM
c1cc2c(c(Nc3ncnc4nc(NC5CC5)ncc34)c1)CCC2 [Compound 7g, N^2-cyclopropyl-N^5-(2,3-dihydro-1H-inden-4-yl)pyrimido[4,5-d]pyrimidine-2,5-diamine]	> 50 µM	≥ 30.5 µM	> 50 µM	> 100 µM	> 50 µM	> 50 µM	> 100 µM	290 °C	> 100 µM	> 100 µM	> 50 µM	> 50 µM	> 100 µM	> 100 µM	> 50 µM	> 100 µM	> 100 µM	> 50 µM	> 50 µM	> 50 µM	CC50 [6]: > 50 µM; CC50 [9]: > 50 µM; CC50 [12]: > 50 µM; EC50 [24]: > 50 µM
C#Cc1cccc(Nc2ncnc3nc(N4CCN(C)CC4)ncc23)c1 [Compound 7h, N-(3-ethynylphenyl)-7-(4-methylpiperazin-1-yl)pyrimido[4,5-d]pyrimidin-4-amine]	> 50 µM	> 50 µM	> 50 µM	52.6 ± 1.4 µM	> 50 µM	> 50 µM	79.1 ± 4.6 µM	290 °C	> 100 µM	97.1 ± 1.5 µM	> 50 µM	> 50 µM	> 100 µM	> 100 µM	> 50 µM	66.5 ± 0.8 µM	52.3 ± 4.4 µM	> 50 µM	> 50 µM	> 50 µM	antiviral activity (in words) [1]: inactive; EC50 [24]: > 50 µM
C#Cc1cccc(Nc2ncnc3nc(NC4CC4)ncc23)c1 [Compound 7j, N^2-cyclopropyl-N^5-(3-ethynylphenyl)pyrimido[4,5-d]pyrimidine-2,5-diamine]	> 50 µM	> 50 µM	> 50 µM	> 100 µM	> 50 µM	> 50 µM	> 100 µM	296 °C	> 100 µM	> 100 µM	> 50 µM	> 50 µM	> 100 µM	> 100 µM	> 50 µM	> 100 µM	> 100 µM	> 50 µM	> 50 µM	> 50 µM	CC50 [6]: > 50 µM; CC50 [9]: > 50 µM; CC50 [12]: > 50 µM; EC50 [24]: > 50 µM
CCN(CC)CCNc1ncc2c(Nc3cccnc3)ncnc2n1 [Compound 7l, N^2-[2-(diethylamino)ethyl]-N^5-(pyridin-3-yl)pyrimido[4,5-d]pyrimidine-2,5-diamine]	> 50 µM	> 50 µM	> 50 µM	> 100 µM	> 50 µM	> 50 µM	> 100 µM	220 to 224 °C	> 100 µM	> 100 µM	> 50 µM	> 50 µM	> 100 µM	> 100 µM	> 50 µM	> 100 µM	> 100 µM	> 50 µM	> 50 µM	> 50 µM	CC50 [6]: > 50 µM; CC50 [9]: > 50 µM; CC50 [12]: > 50 µM; EC50 [24]: > 50 µM
c1cncc(Nc2ncnc3nc(NC4CC4)ncc23)c1 [Compound 7m, N^2-cyclopropyl-N^5-(pyridin-3-yl)pyrimido[4,5-d]pyrimidine-2,5-diamine]	> 50 µM	> 50 µM	> 50 µM	> 100 µM	> 50 µM	> 50 µM	> 100 µM	243 °C	> 100 µM	> 100 µM	> 50 µM	> 50 µM	> 100 µM	> 100 µM	> 50 µM	> 100 µM	> 100 µM	> 50 µM	> 50 µM	> 50 µM	CC50 [6]: > 50 µM; CC50 [9]: > 50 µM; CC50 [12]: > 50 µM; EC50 [24]: > 50 µM
